IC50 data for 16 compounds are collected here from patent publication US12053459B2, “CDK2 inhibitors and methods of using the same” (Cedilla Therapeutics, Inc., priority 2021, dated 2024).

SMILES strings stand for the structures. pIC50: −log10 of the molar value. Where only a bound is given, the exact number is not on record here.

One assay relates to Kuramochi cells. The assay can be described thus: BrdU cell proliferation assay (colorimetric ELISA), Kuramochi cells. In kind it is cell-based. Particulars: class symbols A-D. In short, it runs like this:
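Kuramochi cells (2,000/well, with Kuramochi RB^KO cells as a specificity control) were treated with a 4-point, 3-fold dilution series made from 10 mM compound stocks and left for 4 days at 37 °C. Proliferation was measured by 1 h BrdU labelling, then anti-BrdU peroxidase ELISA read at 450 nm. Signals were background-subtracted and normalized to DMSO wells.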
Background: An ELISA detects its analyte on a solid surface through an enzyme-linked reagent.

A further assay deals with CDK2/Cyclin E1(14-475) (Homo sapiens, UniProt P24941). In words: Caliper LabChip EZ Reader mobility shift assay, inhibition of CDK2/Cyclin E1 activity. Particulars: class symbols A-D. In kind it is biochemical. In short, it runs like this: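 CDK2/Cyclin E1(14-475) pre-incubated 30 min with compound and ATP, then reaction started with 5-FAM-QSPKKG-CONH2; final 2.5 nM enzyme, 100 μM ATP, 1.5 μM peptide, HEPES pH 7.5. Stopped with EDTA after 100 min; substrate/product conversion by capillary electrophoresis mobility shift, IC50 from four-parameter fit.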

For `CNC(=O)[C@H](CCCc1ccccc1)NC(=O)C1CN(C(=O)Cc2c[nH]c3cc(Cl)ccc23)CC2CN(C(=O)c3ccc4c(c3)c(OC)nn4C(C)C)CC21` (some centres unmarked) [I-84], the pIC50 in the assay with Kuramochi cells is less than 5.00; on CDK2/Cyclin E1(14-475), 5.30 to 6.30.
For the compound `CNC(=O)[C@H](CCCc1ccccc1)NC(=O)C1CN(C(=O)Cc2c[nH]c3cc(Cl)ccc23)CC2CN(C(=O)c3ccc(OC(C)C)c4occc34)CC21` (some centres unmarked) [I-85], the values for the pIC50 with Kuramochi cells and on CDK2/Cyclin E1(14-475) were less than 5.00 and not below 6.30, respectively.
As for `COc1cc(C(=O)N2CC3CN(C(=O)Cc4c[nH]c5cc(Cl)ccc45)CC(C(=O)N[C@@H]4CCCN(Cc5ccccc5)C4)C3C2)ccc1OC(C)C` (stereo partly drawn) [I-88, N—((R)-1-benzylpiperidin-3-yl)-5-(2-(6-chloro-1H-indol-3-yl)acetyl)-2-(4-isopropoxy-3-methoxybenzoyl)octahydro-1H-pyrrolo[3,4-c]pyridine-7-carboxamide], the pIC50 with Kuramochi cells and on CDK2/Cyclin E1(14-475) was less than 5.00 throughout.
`COc1cc(C(=O)N2CC3CN(C(=O)Cc4c[nH]c5cc(Cl)ccc45)CC(C(=O)NC4CCCN(C(=O)c5ccccc5)C4)C3C2)ccc1OC(C)C` (centres unmarked) [I-89]: the pIC50 in the assay with Kuramochi cells and on CDK2/Cyclin E1(14-475) was less than 5.00 in each case.
Take `COc1cc(C(=O)N2CC3CN(C(=O)Cc4c[nH]c5cc(Cl)ccc45)CC(C(=O)NC4CCCN(C(=O)Cc5ccccc5)C4)C3C2)ccc1OC(C)C` (centres unmarked) [I-90]: the pIC50 in the assay on Kuramochi cells and on CDK2/Cyclin E1(14-475) was less than 5.00 in each case.
Consider `CNC(=O)[C@H](CCCc1ccccn1)NC(=O)C1CN(C(=O)Cc2c[nH]c3cc(Cl)ccc23)CC2CN(C(=O)c3ccc(OC(C)C)c(OC)c3)CC21` (some centres unmarked) [I-91], for which the pIC50 in the assay on Kuramochi cells is less than 5.00; on CDK2/Cyclin E1(14-475) it was 5.30 to 6.30.
Turning to `CNC(=O)[C@H](NC(=O)C1CN(C(=O)Cc2c[nH]c3cc(Cl)ccc23)CC2CN(C(=O)c3ccc(OC(C)C)c(OC)c3)CC21)[C@@H](C)OCc1ccccc1` (some centres unmarked) [I-92], the pIC50 with Kuramochi cells and on CDK2/Cyclin E1(14-475) was less than 5.00 in each case.
Take `CNC(=O)C(CCCC1CCCC1)NC(=O)C1CN(C(=O)Cc2c[nH]c3cc(Cl)ccc23)CC2CN(C(=O)c3ccc(OC(C)C)c(OC)c3)CC21` (centres unmarked) [I-93]: the pIC50 is less than 5.00 with Kuramochi cells and 5.30 to 6.30 on CDK2/Cyclin E1(14-475).
The matching figures for `CNC(=O)[C@H](CCCC1CCC(C(F)(F)F)CC1)NC(=O)C1CN(C(=O)Cc2c[nH]c3cc(Cl)ccc23)CC2CN(C(=O)c3ccc(OC(C)C)c(OC)c3)CC21` (some centres unmarked) [I-94]: less than 5.00 and less than 5.00.
In the case of `CNC(=O)[C@@H](CCCC(C)(C)C)NC(=O)C1CN(C(=O)Cc2c[nH]c3cc(Cl)ccc23)CC2CN(C(=O)c3ccc(OC(C)C)c(OC)c3)CC21` (some centres unmarked) [I-95], the pIC50 in the assay with Kuramochi cells was less than 5.00; on CDK2/Cyclin E1(14-475), 5.30 to 6.30.
For the compound `CNC(=O)[C@H](CCCC(C)C)NC(=O)C1CN(C(=O)Cc2c[nH]c3cc(Cl)ccc23)CC2CN(C(=O)c3ccc(OC(C)C)c(OC)c3)CC21` (some centres unmarked) [I-97], the pIC50 was less than 5.00 with Kuramochi cells and 5.30 to 6.30 on CDK2/Cyclin E1(14-475).
With `COc1cc(C(=O)N2CC3CN(C(=O)Cc4c[nH]c5cc(Cl)ccc45)CC(C(=O)N[C@@H](C)C(=O)NCCCc4ccccc4)C3C2)ccc1OC(C)C` (some centres unmarked) [I-98], the pIC50 with Kuramochi cells was less than 5.00; at CDK2/Cyclin E1(14-475), 5.30 to 6.30.
The matching figures for `COc1cc(C(=O)N2CC3CN(C(=O)Cc4c[nH]c5cc(Cl)ccc45)CC(C(=O)NCC(=O)NCCCc4ccccc4)C3C2)ccc1OC(C)C` (centres unmarked) [I-99]: less than 5.00 and 5.30 to 6.30.
Take `CNC(=O)[C@@H](NC(=O)C1CN(C(=O)Cc2c[nH]c3cc(Cl)ccc23)CC2CN(C(=O)c3ccc(OC(C)C)c(OC)c3)CC21)[C@@H](C)OCc1ccccc1` (some centres unmarked) [I-102]: the pIC50 in the assay with Kuramochi cells was less than 5.00; at CDK2/Cyclin E1(14-475), 5.30 to 6.30.
With `COc1cc(C(=O)N2CC3CN(C(=O)Cc4c[nH]c5cc(Cl)ccc45)CC(C(=O)N[C@@H](C)C(=O)N(C)CCCc4ccccc4)C3C2)ccc1OC(C)C` (some centres unmarked) [I-103], the negative logarithm of the IC50 (pIC50) in the assay on Kuramochi cells is less than 5.00; on CDK2/Cyclin E1(14-475) it was 5.30 to 6.30.
Consider `CNC(=O)[C@@H](CCCC1CCC(C(F)(F)F)CC1)NC(=O)C1CN(C(=O)Cc2c[nH]c3cc(Cl)ccc23)CC2CN(C(=O)c3ccc(OC(C)C)c(OC)c3)CC21` (some centres unmarked) [I-104], for which the pIC50 in the assay on Kuramochi cells and on CDK2/Cyclin E1(14-475) was less than 5.00 throughout.

The term pIC50 denotes the negative decadic logarithm of the IC50, by convention in mol/L.
